Measured values: ChEMBL document CHEMBL1201862, “PubChem BioAssay data set” (2004)
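Assay format: 96-well plates, 48-hour exposure. GI50 is the concentration that inhibits growth by half.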 Activity calls are given as the source filed them. Cut-off read from the data, not from the text of the source: active = GI50 up to about 1.1 µM and inactive = higher.

What was measured:
Test in all cases: inhibition of tumour cell growth, NCI panel, 48 h
SK-MEL-2 = system: SK-MEL-2
OVCAR-4 = system: OVCAR-4
SK-MEL-5 = system: SK-MEL-5
LOX IMVI = system: LOX IMVI
U-251 = system: U-251
HOP-62 = system: HOP-62
HOP-92 = system: HOP-92
ACHN = system: ACHN
CAKI-1 = system: CAKI-1
M14 = system: M14
RPMI-8226 = system: RPMI-8226
MDA-N = system: MDA-N
DU-145 = system: DU-145
Malme-3M = system: Malme-3M
A498 = system: A498
SF-268 = system: SF-268
UO-31 = system: UO-31
SR = system: SR
K562 = system: K562
HL-60 = system: HL-60

Structure (SMILES) | GI50 (SK-MEL-2) | GI50 (OVCAR-4) | GI50 (SK-MEL-5) | GI50 (LOX IMVI) | GI50 (U-251) | GI50 (HOP-62) | GI50 (HOP-92) | GI50 (ACHN) | GI50 (CAKI-1) | GI50 (M14) | GI50 (RPMI-8226) | GI50 (MDA-N) | GI50 (DU-145) | GI50 (Malme-3M) | GI50 (A498) | GI50 (SF-268) | GI50 (UO-31) | GI50 (SR) | GI50 (K562) | GI50 (HL-60)
N#CC1=CNc2sccc2S1(=O)=O | > 100 µM (inactive) | > 100 µM (inactive) | 76.4 µM (inactive) | > 100 µM (inactive) | > 100 µM (inactive) | > 100 µM (inactive) | > 100 µM (inactive) | > 100 µM (inactive) | > 100 µM (inactive) | > 100 µM (inactive) | > 100 µM (inactive) | > 100 µM (inactive) | > 100 µM (inactive) | > 100 µM (inactive) | > 100 µM (inactive) | 81.7 µM (inactive) | 92.9 µM (inactive) | – | – | –
COc1cc2c(cc1OC)C(=O)/C(=C/c1ccc([N+](=O)[O-])cc1)CC2 | > 10 µM (inactive) | > 10 µM (inactive) | > 10 µM (inactive) | > 10 µM (inactive) | > 10 µM (inactive) | > 10 µM (inactive) | > 10 µM (inactive) | > 10 µM (inactive) | > 10 µM (inactive) | > 10 µM (inactive) | > 10 µM (inactive) | > 10 µM (inactive) | > 10 µM (inactive) | > 10 µM (inactive) | – | > 10 µM (inactive) | – | > 10 µM (inactive) | > 10 µM (inactive) | > 10 µM (inactive)
Cc1nc2sc3ccccc3n2c(=O)c1/N=N/c1ccc(Cl)cc1 | > 100 µM (inactive) | > 100 µM (inactive) | > 100 µM (inactive) | > 100 µM (inactive) | > 100 µM (inactive) | > 100 µM (inactive) | > 100 µM (inactive) | > 100 µM (inactive) | > 100 µM (inactive) | > 100 µM (inactive) | > 100 µM (inactive) | > 100 µM (inactive) | > 100 µM (inactive) | > 100 µM (inactive) | – | > 100 µM (inactive) | – | > 100 µM (inactive) | > 100 µM (inactive) | > 100 µM (inactive)
c1ccc(/C(=N/Nc2ccncn2)c2ccccn2)cc1 | 44.8 µM (inactive) | 49.1 µM (inactive) | 15.4 µM (inactive) | – | 39.6 µM (inactive) | 31.7 µM (inactive) | – | 5.82 µM (inactive) | 15.5 µM (inactive) | 10.3 µM (inactive) | 9.75 µM (inactive) | 58.5 µM (inactive) | 34.6 µM (inactive) | – | – | 15.9 µM (inactive) | 15.5 µM (inactive) | 10.5 µM (inactive) | 0.528 µM (active) | –
C=C1C(=O)CCC1C(=O)O (centres undefined) | > 100 µM (inactive) | > 100 µM (inactive) | > 100 µM (inactive) | > 100 µM (inactive) | > 100 µM (inactive) | > 100 µM (inactive) | – | > 100 µM (inactive) | – | > 100 µM (inactive) | > 100 µM (inactive) | > 100 µM (inactive) | > 100 µM (inactive) | > 100 µM (inactive) | > 100 µM (inactive) | > 100 µM (inactive) | > 100 µM (inactive) | > 100 µM (inactive) | > 100 µM (inactive) | > 100 µM (inactive)
Cc1ccc(/C=C2\CCCC(CN(C)C)C2=O)cc1 (centres undefined) | 4.76 µM (inactive) | 2.02 µM (inactive) | 3.51 µM (inactive) | 1.77 µM (inactive) | 13.5 µM (inactive) | 20.4 µM (inactive) | 1.88 µM (inactive) | 2.24 µM (inactive) | 1.55 µM (inactive) | 1.81 µM (inactive) | – | 1.97 µM (inactive) | 10.2 µM (inactive) | 1.91 µM (inactive) | 14.3 µM (inactive) | 2.06 µM (inactive) | 1.69 µM (inactive) | – | 1.66 µM (inactive) | 0.841 µM (active)
COc1ccc2cc(NC(=O)N/N=C\c3ccc(Cl)cc3)ccc2c1 | > 100 µM (inactive) | 27 µM (inactive) | – | > 100 µM (inactive) | 41.2 µM (inactive) | 27.5 µM (inactive) | > 100 µM (inactive) | > 100 µM (inactive) | > 100 µM (inactive) | > 100 µM (inactive) | > 100 µM (inactive) | > 100 µM (inactive) | > 100 µM (inactive) | 34 µM (inactive) | – | 44.1 µM (inactive) | > 100 µM (inactive) | > 100 µM (inactive) | > 100 µM (inactive) | > 100 µM (inactive)
COc1c(C)c(C/C=C(\C)CCCCO)c(OC)c2ccccc12 | 83.6 µM (inactive) | 38.5 µM (inactive) | 16.9 µM (inactive) | 18.8 µM (inactive) | 64.4 µM (inactive) | – | 21.4 µM (inactive) | 36.1 µM (inactive) | 17.9 µM (inactive) | 37.2 µM (inactive) | > 100 µM (inactive) | 42.2 µM (inactive) | 45.3 µM (inactive) | – | – | 44 µM (inactive) | 30.1 µM (inactive) | 26.3 µM (inactive) | 29.4 µM (inactive) | –
CCOC(=O)NCC(=O)NCC(=O)NCC(N)=O | > 100 µM (inactive) | > 100 µM (inactive) | > 100 µM (inactive) | – | > 100 µM (inactive) | > 100 µM (inactive) | – | > 100 µM (inactive) | > 100 µM (inactive) | > 100 µM (inactive) | > 100 µM (inactive) | > 100 µM (inactive) | > 100 µM (inactive) | > 100 µM (inactive) | – | > 100 µM (inactive) | > 100 µM (inactive) | > 100 µM (inactive) | > 100 µM (inactive) | –
COc1ccc(Nc2c[nH]c(=O)[nH]c2=O)cc1 | > 100 µM (inactive) | > 100 µM (inactive) | > 100 µM (inactive) | > 100 µM (inactive) | > 100 µM (inactive) | > 100 µM (inactive) | > 100 µM (inactive) | > 100 µM (inactive) | > 100 µM (inactive) | > 100 µM (inactive) | > 100 µM (inactive) | > 100 µM (inactive) | > 100 µM (inactive) | > 100 µM (inactive) | > 100 µM (inactive) | – | > 100 µM (inactive) | – | > 100 µM (inactive) | > 100 µM (inactive)
CCOC(=O)Cc1ccc(Nc2nc3cc(F)c(F)cc3nc2C(=O)OCC)cc1 | 22.9 µM (inactive) | 57 µM (inactive) | 34.5 µM (inactive) | 28.1 µM (inactive) | 28.9 µM (inactive) | > 100 µM (inactive) | 13.4 µM (inactive) | 18.4 µM (inactive) | 19.1 µM (inactive) | 35.1 µM (inactive) | 39.1 µM (inactive) | 45 µM (inactive) | 25.9 µM (inactive) | > 100 µM (inactive) | – | 64.9 µM (inactive) | 1.52 µM (inactive) | 26.5 µM (inactive) | 35.7 µM (inactive) | 39.3 µM (inactive)
O=C(CC1(O)CCCCC1)OC1CCCC1 | > 100 µM (inactive) | > 100 µM (inactive) | > 100 µM (inactive) | > 100 µM (inactive) | > 100 µM (inactive) | > 100 µM (inactive) | > 100 µM (inactive) | > 100 µM (inactive) | > 100 µM (inactive) | > 100 µM (inactive) | – | > 100 µM (inactive) | > 100 µM (inactive) | > 100 µM (inactive) | > 100 µM (inactive) | > 100 µM (inactive) | > 100 µM (inactive) | – | – | –
O=C1c2ccccc2C2=Nc3ccncc3CN12 | > 100 µM (inactive) | > 100 µM (inactive) | > 100 µM (inactive) | – | > 100 µM (inactive) | > 100 µM (inactive) | > 100 µM (inactive) | > 100 µM (inactive) | > 100 µM (inactive) | > 100 µM (inactive) | > 100 µM (inactive) | > 100 µM (inactive) | > 100 µM (inactive) | > 100 µM (inactive) | – | > 100 µM (inactive) | > 100 µM (inactive) | > 100 µM (inactive) | > 100 µM (inactive) | > 100 µM (inactive)
COCOc1c(C(OCOC)c2cnc(Sc3ccccc3)n2C)ccc(OC)c1OC (centres undefined) | > 100 µM (inactive) | > 100 µM (inactive) | 63.8 µM (inactive) | > 100 µM (inactive) | > 100 µM (inactive) | > 100 µM (inactive) | > 100 µM (inactive) | > 100 µM (inactive) | > 100 µM (inactive) | – | 65 µM (inactive) | > 100 µM (inactive) | > 100 µM (inactive) | > 100 µM (inactive) | – | > 100 µM (inactive) | 73.6 µM (inactive) | 52.5 µM (inactive) | > 100 µM (inactive) | > 100 µM (inactive)
O/N=C1\CCc2nonc2\C1=N/Nc1ccccc1 | > 100 µM (inactive) | > 100 µM (inactive) | > 100 µM (inactive) | > 100 µM (inactive) | > 100 µM (inactive) | > 100 µM (inactive) | > 100 µM (inactive) | 43.7 µM (inactive) | > 100 µM (inactive) | > 100 µM (inactive) | > 100 µM (inactive) | > 100 µM (inactive) | > 100 µM (inactive) | > 100 µM (inactive) | – | > 100 µM (inactive) | 30.5 µM (inactive) | > 100 µM (inactive) | > 100 µM (inactive) | > 100 µM (inactive)
CC(=O)ON(OC(C)=O)c1ccc(C)cc1 | > 100 µM (inactive) | > 100 µM (inactive) | > 100 µM (inactive) | – | > 100 µM (inactive) | > 100 µM (inactive) | > 100 µM (inactive) | > 100 µM (inactive) | > 100 µM (inactive) | > 100 µM (inactive) | > 100 µM (inactive) | > 100 µM (inactive) | > 100 µM (inactive) | > 100 µM (inactive) | > 100 µM (inactive) | > 100 µM (inactive) | > 100 µM (inactive) | – | > 100 µM (inactive) | –
